Measurements: EP0199247A2, “Cytostatic active medicine containing glycidyl amines” (priority 1985, dated 1986)

System: Tumorart P 388 (Leukämie)
Experiment: P 388 leukemia survival test in mice (NCI protocol 1200)
Assay type: in vivo, Mäusen
Details: i.p., 9-day treatment; for Verlängerungsrate T/C: P 388 i.p. 10^6 Zellen/Maus, untreated mean survival 10 days; for Zahl der Tiere aus jeweils einer Gruppe von 6 die 30 Tage überlebten: value in brackets, group of 6
Source text: Die nachfolgenden Versuche wurden durchgeführt nach Tcstvorschriften des National Canccr Institute Bethesda, Maryland 200014, veröffentlicht in "Cancer Chemotherany Renorts" Part. 3, Sept. 1972, Vol. 3, Nr. 2. Als Wirksubstanz wurde Triglycidylamin sowie 3-Chlorpropyl-diglycidylamin des vorstehenden Beisniels 4 verwendet. Die Substanz wurde als wäßrige 1 %ige Injektionslösung unmittelbar vor der Applikation frisch hergestellt.
Bei Mäusen wurde gemäß Protokoll 1200 (S. 91 c) die Tumorart P 388 (Leukämie) i.p. mit 10^6 Zellen/Maus gesetzt. Die unbehandelten Tiere hatten eine mittlere Überlebensdauer von 10 Tagen.
Mit den behandelten Testtieren, die einer 9-tägigen i.p. Behandlung mit der in Tabelle 1 angesehenen Dosis unterworfen wurden, wurde eine signifikante Verlängerung der Lebensdauer gegenüber der mittleren Überlebensdauer der nicht mit dem Wirkstoff behandelten Tiere erzielt. Die Verlängerunzstate T/C in Abhängigkeit von der Dosierung des Wirkstoffes ist in der Tabelle 1 zusammengestellt. Die Werte in Klammern bedeuten die Zahl der Tiere aus jeweils einer Gruppe von 6 die 30 Tage üherlebten.

| Structure (SMILES) | Verlängerungsrate T/C (Dosis 1,87 mg/kg) | Verlängerungsrate T/C (Dosis 3,75 mg/kg) | Verlängerungsrate T/C (Dosis 7,50 mg/kg) | Zahl der Tiere aus jeweils einer Gruppe von 6 die 30 Tage überlebten (Dosis 7,50 mg/kg) | Verlängerungsrate T/C (Dosis 0,48 mg/kg) | Verlängerungsrate T/C (Dosis 0,97 mg/kg) | Zahl der Tiere aus jeweils einer Gruppe von 6 die 30 Tage überlebten (Dosis 3,75 mg/kg) |
| --- | --- | --- | --- | --- | --- | --- | --- |
| ClCCCN(CC1CO1)CC1CO1 (stereo not drawn) [3-Chlorpropyl-diglycidylamin] | 179% | 181% | 303% | 3 | – | – | – |
| C1OC1CN(CC1CO1)CC1CO1 (stereo not drawn) [Triglycidylamin] | 252% | 303% | – | – | 148% | 174% | 6 |
